Values after ≈ are worked out from the molar mass of the structure shown. Active and inactive are the calls of the source. The calls are words filed in the database; no cut-off is given here.
Experiments:
[Candida] auris [1] = Antifungal activity against Candida auris 0029 assessed as reduction in fungal growth; type: functional; conditions: Candidozyma auris
Cryptococcus neoformans [2] = test: Antifungal activity against Cryptococcus neoformans H99 assessed as reduction in fungal growth; type: functional
[Candida] auris [3] = Antifungal activity against Candida auris ATCC 15448 assessed as reduction in fungal growth; type: functional; conditions: Candidozyma auris
[4] = Cytotoxicity against HUVEC cells; type: toxicity, cell-based; conditions: human
[5] = Inhibition of Cryptococcus neoformans H99 JMJD3 by absorbance based analysis
Cryptococcus neoformans [6] = test: Antifungal activity against Cryptococcus neoformans H99 assessed as reduction in fungal growth incubated for 72 hrs in presence of 80 uM Fe2+; type: functional
[Candida] auris [7] = Effect on sterol composition in Candida auris 0029 assessed as other sterols content at 1 microg/ml measured after 24 hrs by GC-MS analysis; type: functional, Candidozyma auris; conditions: dose 1 µg/ml
[Candida] auris [8] = Fungicidal activity against Candida auris 0029; type: functional; conditions: Candidozyma auris
Cryptococcus neoformans [9] = test: Effect on sterol composition in Cryptococcus neoformans H99 assessed as other sterols content at 1 microg/ml measured after 24 hrs by GC-MS analysis (reference value: 41.47%); type: functional; conditions: dose 1 µg/ml
[10] = Hemolytic activity in rabbit erythrocytes assessed as hemolysis at 10 to 100 uM relative to control; type: toxicity, cell-based, Oryctolagus cuniculus, Erythrocyte; conditions: dose 10-100 µM, read-out: Activity
[Candida] auris [11] = Antibiofilm activity against Candida auris 0029 assessed as inhibition of biofilm formation at 4 to 64 microg/ml incubated for 24 hrs by XTT reduction assay; type: functional, organism-based; conditions: Candidozyma auris, dose 4-64 µg/ml
[12] = Metabolic stability in mouse liver microsome assessed as half life; type: ADME; conditions: liver microsomes
Cryptococcus neoformans [13] = test: Antifungal activity against Cryptococcus neoformans H99 assessed as reduction in fungal growth incubated for 72 hrs in presence of 40 uM Fe2+; type: functional
Cryptococcus neoformans [14] = test: Effect on sterol composition in Cryptococcus neoformans H99 assessed as ergosterol content at 1 microg/ml measured after 24 hrs by GC-MS analysis (reference value: 58.53%); type: functional; conditions: dose 1 µg/ml
Cryptococcus neoformans [15] = test: Antifungal activity against Cryptococcus neoformans H99 assessed as reduction in fungal growth incubated for 72 hrs in presence of 10 uM Fe2+; type: functional
Cryptococcus neoformans [16] = test: Induction of morphological changes in Cryptococcus neoformans H99 assessed as damaged cell membrane at 1 to 4 microg/ml by TEM analysis; type: functional, organism-based; conditions: dose 1-4 µg/ml
[Candida] auris [17] = Antibiofilm activity against Candida auris 0029 assessed as appearance of surface collapse at 4 to 16 microg/ml measured for 48 hrs by SEM analysis; type: functional, organism-based; conditions: Candidozyma auris, dose 4-16 µg/ml
Cryptococcus neoformans [18] = test: Antibiofilm activity against Cryptococcus neoformans H99 assessed as appearance of surface collapse at 4 to 16 microg/ml measured for 48 hrs by SEM analysis; type: functional, organism-based; conditions: dose 4-16 µg/ml
Candida albicans = test: Synergistic antifungal activity against Candida albicans assessed as inhibition of fungal growth incubated in presence of fluconazole; type: functional, organism-based
[Candida] auris [19] = Antifungal activity against Candida auris 0029 infected in ICR mouse assessed as reduction in fungal burden in kidney at 2 to 5 mg/kg, ip administered for 5 days; type: functional, organism-based; conditions: Candidozyma auris, dose 2-5 mg/kg, time 5.0 day
Cryptococcus neoformans [20] = test: Fungicidal activity against Cryptococcus neoformans H99; type: functional
[Candida] auris [21] = Antifungal activity against Candida auris 0029 assessed as inhibition of cell growth at 16 microg/ml measured for 72 hrs; type: functional; conditions: Candidozyma auris
Cryptococcus neoformans [22] = test: Antifungal activity against Cryptococcus neoformans H99 assessed as reduction in fungal growth incubated for 72 hrs in presence of 1 uM Fe2+; type: functional
Cryptococcus neoformans [23] = test: Induction of morphological changes in Cryptococcus neoformans H99 assessed as sparse capsule at 1 to 4 microg/ml by TEM analysis; type: functional, organism-based; conditions: dose 1-4 µg/ml
[Candida] auris [24] = Synergistic antifungal activity against Candida auris 0029 assessed as inhibition of fungal growth incubated in presence of fluconazole; type: functional, organism-based; conditions: Candidozyma auris
Cryptococcus neoformans [25] = test: Antifungal activity against Cryptococcus neoformans H99 infected in ICR mouse assessed as reduction in fungal burden in brain at 2 to 5 mg/kg, ip administered for 5 days; type: functional, organism-based; conditions: dose 2-5 mg/kg, time 5.0 day
Cryptococcus neoformans [26] = test: Antifungal activity against Cryptococcus neoformans H99 assessed as inhibition of cell growth at 4 microg/ml measured for 72 hrs; type: functional, organism-based; conditions: dose 4.0 µg/ml
[Candida] auris [27] = Induction of morphological changes in Candida auris 0029 assessed as cell wall damage by TEM analysis; type: functional, organism-based; conditions: Candidozyma auris
[28] = Solubility of compound in MeOH/H2O at pH 7 by HPLC analysis; type: physicochemical
Cryptococcus neoformans [29] = test: Antibiofilm activity against Cryptococcus neoformans H99 assessed as inhibition of biofilm formation at 1 microg/ml incubated for 24 hrs by XTT reduction assay; type: functional, organism-based; conditions: dose 1.0 µg/ml
[30] = Metabolic stability in mouse liver microsome assessed as clearance; type: ADME; conditions: liver microsomes, read-out: CLH
Cryptococcus neoformans [31] = test: Antifungal activity against Cryptococcus neoformans H99 assessed as reduction in fungal growth incubated for 72 hrs in presence of 5 uM Fe2+; type: functional
Cryptococcus neoformans [32] = test: Antibiofilm activity against Cryptococcus neoformans H99 assessed as inhibition of capsule formation at 1 microg/ml incubated for 48 hrs by laser confocal microscopic analysis; type: functional, organism-based; conditions: dose 1.0 µg/ml
[Candida] auris [33] = Effect on sterol composition in Candida auris 0029 assessed as ergosterol content at 1 microg/ml measured after 24 hrs by GC-MS analysis (reference value: 100 %); type: functional, Candidozyma auris; conditions: dose 1 µg/ml
[Candida] auris [34] = Induction of morphological changes in Candida auris 0029 assessed as cell membrane damage by TEM analysis; type: functional, organism-based; conditions: Candidozyma auris
Cryptococcus neoformans [35] = test: Antibiofilm activity against Cryptococcus neoformans H99 assessed as appearance of blurred capsule at 4 microg/ml measured for 48 hrs by SEM analysis; type: functional, organism-based; conditions: dose 4.0 µg/ml
[Candida] auris [36] = Antibiofilm activity against Candida auris 0029 assessed as inhibition of biofilm formation upto […] microg/ml incubated for 24 hrs by XTT reduction assay; type: functional, organism-based; conditions: Candidozyma auris, dose <= 64.0 µg/ml
[37] = Inhibition of Candida auris 0029 JMJD3 by absorbance based analysis; design: species or system Candidozyma auris
Cryptococcus neoformans [38] = test: Antifungal activity against Cryptococcus neoformans H99 assessed as reduction in fungal growth incubated for 72 hrs in presence of 20 uM Fe2+; type: functional
Cryptococcus neoformans [39] = test: Antibiofilm activity against Cryptococcus neoformans H99 assessed as inhibition of biofilm formation upto […] microg/ml incubated for 24 hrs by XTT reduction assay; type: functional, organism-based; conditions: dose <= 64.0 µg/ml
[Candida] auris [40] = Antibiofilm activity against Candida auris 0029 assessed as inhibition of biofilm formation at 64 microg/ml incubated for 24 hrs by XTT reduction assay; type: functional; conditions: Candidozyma auris, dose 64.0 µg/ml
Cryptococcus neoformans [41] = test: Antifungal activity against Cryptococcus neoformans H99 assessed as inhibition of cell growth at 16 microg/ml measured for 72 hrs; type: functional, organism-based; conditions: dose 16.0 µg/ml
Cryptococcus neoformans [42] = test: Antibiofilm activity against Cryptococcus neoformans H99 assessed as inhibition of capsule formation at 4 microg/ml incubated for 48 hrs by laser confocal microscopic analysis; type: functional, organism-based; conditions: dose 4.0 µg/ml
Cryptococcus neoformans [43] = test: Effect on sterol composition in Cryptococcus neoformans H99 assessed as lanosterol content at 1 microg/ml measured after 24 hrs by GC-MS analysis; type: functional; conditions: dose 1 µg/ml
Cryptococcus neoformans [44] = test: Effect on sterol composition in Cryptococcus neoformans H99 assessed as eburicol content at 1 microg/ml measured after 24 hrs by GC-MS analysis; type: functional; conditions: dose 1 µg/ml

Clc1ccc(/C(=N\Nc2ccc(Cl)cn2)c2ccccn2)cc1
MIC80 ([Candida] auris [1]): 2 µg/mL (≈ 5.83 µM)
MIC80 (Cryptococcus neoformans [2]): 0.5 µg/mL (≈ 1.46 µM)
MIC80 ([Candida] auris [3]): 1 µg/mL (≈ 2.91 µM)

S=c1n(-c2ccccn2)c2ccccc2n1-c1ccc(Cl)cn1
MIC80 ([Candida] auris [1]): > 64 µg/mL
MIC80 (Cryptococcus neoformans [2]): 64 µg/mL (≈ 189 µM)
MIC80 ([Candida] auris [3]): > 64 µg/mL

FC(F)(F)c1ccc(N/N=C(\c2ccccc2)c2ccccn2)cc1
MIC80 ([Candida] auris [1]): > 64 µg/mL
MIC80 (Cryptococcus neoformans [2]): 32 µg/mL (≈ 93.7 µM)
MIC80 ([Candida] auris [3]): > 64 µg/mL

Clc1ccc(N/N=C(\c2ccccc2)c2ccccn2)cc1
MIC80 ([Candida] auris [1]): > 64 µg/mL
MIC80 (Cryptococcus neoformans [2]): 32 µg/mL (≈ 104 µM)
MIC80 ([Candida] auris [3]): > 64 µg/mL

COc1ccc(NN=C(c2ccccn2)c2ccccn2)nc1
IC50 [4]: 246 nM
IC50 [5]: 134 nM
MIC (Cryptococcus neoformans [6]): 32 µg/mL
Activity ([Candida] auris [7]): 43.07%
MFC ([Candida] auris [8]): 64 µg/mL (≈ 210 µM)
Activity (Cryptococcus neoformans [9]): 41.52%
hemolysis at 100 µM [10]: < 3%
Activity ([Candida] auris [11]): Active
half-life [12]: 50.6 min
MIC (Cryptococcus neoformans [13]): 16 µg/mL
Activity (Cryptococcus neoformans [14]): 43.82%
MIC (Cryptococcus neoformans [15]): 8 µg/mL
Activity (Cryptococcus neoformans [16]): Active
Activity ([Candida] auris [17]): Active
Activity (Cryptococcus neoformans [18]): Active
Activity (Candida albicans): inactive
Activity ([Candida] auris [19]): Active
MFC (Cryptococcus neoformans [20]): 8 µg/mL (≈ 26.2 µM)
inhibition at 16 µg/mL ([Candida] auris [21]): 100%
MIC (Cryptococcus neoformans [22]): 2 µg/mL
Activity (Cryptococcus neoformans [23]): Active
Activity ([Candida] auris [24]): inactive
Activity (Cryptococcus neoformans [25]): Active
Activity (Cryptococcus neoformans [26]): Active
MIC80 ([Candida] auris [1]): 2 µg/mL (≈ 6.55 µM)
MIC80 (Cryptococcus neoformans [2]): 0.5 µg/mL (≈ 1.64 µM)
Activity ([Candida] auris [27]): Active
MIC80 ([Candida] auris [3]): 0.125 µg/mL (≈ 0.409 µM)
solubility [28]: 79.2 µg/mL (≈ 259 µM)
Activity (Cryptococcus neoformans [29]): Active
CLint scaled [30]: 108 mL/min/kg
MIC (Cryptococcus neoformans [31]): 4 µg/mL
Activity (Cryptococcus neoformans [32]): Active
Activity ([Candida] auris [33]): 56.93%
Activity ([Candida] auris [34]): Active
Activity (Cryptococcus neoformans [35]): Active
Activity ([Candida] auris [36]): Active
IC50 [37]: 12 nM
MIC (Cryptococcus neoformans [38]): 16 µg/mL
Activity (Cryptococcus neoformans [39]): Active

Cc1ccnc(-n2c(=O)n(-c3ccccn3)c3ccccc32)c1
MIC80 ([Candida] auris [1]): > 64 µg/mL
MIC80 (Cryptococcus neoformans [2]): 64 µg/mL (≈ 212 µM)
MIC80 ([Candida] auris [3]): > 64 µg/mL

Fc1ccc(N/N=C(\c2ccccc2)c2ccccn2)cc1
MIC80 ([Candida] auris [1]): 32 µg/mL (≈ 110 µM)
MIC80 (Cryptococcus neoformans [2]): 32 µg/mL (≈ 110 µM)
MIC80 ([Candida] auris [3]): 8 µg/mL (≈ 27.5 µM)

FC(F)(F)c1ccc(N/N=C(/c2ccccc2)c2ccccn2)cc1
MIC80 ([Candida] auris [1]): > 64 µg/mL
MIC80 (Cryptococcus neoformans [2]): > 64 µg/mL
MIC80 ([Candida] auris [3]): > 64 µg/mL

COc1ccc(N/N=C(\c2ccccc2)c2ccccn2)nc1
MIC80 ([Candida] auris [1]): 2 µg/mL (≈ 6.57 µM)
MIC80 (Cryptococcus neoformans [2]): 0.5 µg/mL (≈ 1.64 µM)
MIC80 ([Candida] auris [3]): 0.125 µg/mL (≈ 0.411 µM)

OC(Cn1cncn1)(Cn1cncn1)c1ccc(F)cc1F [FLUCONAZOLE]
MIC (Cryptococcus neoformans [6]): 4 µg/mL
Activity ([Candida] auris [40]): inactive
Activity ([Candida] auris [8]): inactive
Activity (Cryptococcus neoformans [9]): 4.97%
Activity (Cryptococcus neoformans [41]): Active
MIC (Cryptococcus neoformans [13]): 4 µg/mL
Activity (Cryptococcus neoformans [42]): inactive
Activity (Cryptococcus neoformans [14]): 42.51%
MIC (Cryptococcus neoformans [15]): 4 µg/mL
Activity (Cryptococcus neoformans [20]): inactive
Activity ([Candida] auris [21]; dose 16.0 µg/ml): inactive
MIC (Cryptococcus neoformans [22]): 2 µg/mL
MIC80 ([Candida] auris [1]): > 64 µg/mL
MIC80 (Cryptococcus neoformans [2]): 2 µg/mL (≈ 6.53 µM)
MIC80 ([Candida] auris [3]): 16 µg/mL (≈ 52.2 µM)
Activity (Cryptococcus neoformans [43]): 4.24%
Activity (Cryptococcus neoformans [44]): 48.28%
MIC (Cryptococcus neoformans [31]): 2 µg/mL
Activity ([Candida] auris [33]): 100%
MIC (Cryptococcus neoformans [38]): 4 µg/mL

From ChEMBL document CHEMBL6087415, “Discovery of new fungal jumonji H3K27 demethylase inhibitors for the treatment of Cryptococcus neoformans and Candida auris infections” (Eur J Med Chem, 2025)
